These results are taken from PubChem BioAssay (NCI).

The structures appear in SMILES notation.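 How tested: cells in 96-well plates exposed to compound for 48 hours at five concentrations. Abbreviation: GI50, concentration required for 50% inhibition of growth. TGI denotes the concentration required for complete inhibition of growth.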 Bounds are passed on as bounds.

Among the test systems are 786-0 renal; OVCAR-8 ovarian; SNB-19 CNS; M14 melanoma; CAKI-1 renal; NCI-H226 lung; SF-295 CNS; KM12 colon; RXF 393 renal; COLO 205 colon.
Common to all, as to experiment: growth of human tumour cells (NCI), 48 h

Take `COC(=O)/C(=N\Nc1nnc(C)n1N)C(C#N)c1ccc(Cl)cc1` (stereo not given): the TGI in the test on 786-0 renal, in the test on OVCAR-8 ovarian, in the test with SNB-19 CNS, in the test with M14 melanoma, in the test with CAKI-1 renal and in the test with NCI-H226 lung was above 100 µM throughout. For the same compound, the TGI with SF-295 CNS, with KM12 colon, in the test on RXF 393 renal and in the test on COLO 205 colon was above 100 µM throughout.
With `N#C/C(=C1C=C(Br)/C(=N\O)C=C\1Cl)c1cccc2ccccc12`, the TGI in the test on 786-0 renal amounted to 13.6 µM; in the test on OVCAR-8 ovarian, 52.7 µM; in the test with SNB-19 CNS, 32.1 µM; in the test with M14 melanoma, 11.7 µM; in the test on CAKI-1 renal, 23.4 µM; in the test with NCI-H226 lung, 6.54 µM. Besides, the TGI came out at 12.3 µM with SF-295 CNS, 19.4 µM in the test on KM12 colon, 4.44 µM in the test with RXF 393 renal and 5.86 µM with COLO 205 colon.
`CS/C(N)=N\NC(=O)CCC(=O)Nc1ccccc1C(F)(F)F`: the TGI in the test on 786-0 renal, with OVCAR-8 ovarian, in the test with SNB-19 CNS, in the test with M14 melanoma, with CAKI-1 renal and with NCI-H226 lung was above 100 µM in each case. Further, the TGI in the test with SF-295 CNS, in the test on KM12 colon, in the test with RXF 393 renal and with COLO 205 colon was above 100 µM throughout.
For `Cc1ccn2c(c1)nc1nc3ccccc3nc12`, the TGI with 786-0 renal, with OVCAR-8 ovarian, in the test with SNB-19 CNS, in the test on M14 melanoma, with CAKI-1 renal and in the test on NCI-H226 lung was above 100 µM throughout. For the same compound, the TGI in the test with SF-295 CNS, with KM12 colon, in the test on RXF 393 renal and in the test with COLO 205 colon was above 100 µM throughout.
In the case of `CCCN1CCC(=O)N(CCC(F)(F)C(F)(F)C(F)(F)C(F)(F)C(F)(F)C(F)(F)F)C1=S`, the TGI in the test on 786-0 renal, in the test on OVCAR-8 ovarian, with SNB-19 CNS, in the test with M14 melanoma, in the test with CAKI-1 renal and with NCI-H226 lung was above 100 µM each time. The TGI with SF-295 CNS, in the test on KM12 colon, in the test on RXF 393 renal and with COLO 205 colon was above 100 µM each time.
As for `COc1cc2ncnc(Nc3ccc(C)c(O)c3)c2cc1OC`, the GI50 is 11.4 µM in the test on 786-0 renal; 11.2 µM in the test with OVCAR-8 ovarian; above 25 µM in the test on SNB-19 CNS; 18.8 µM in the test with M14 melanoma; 1.99 µM in the test on CAKI-1 renal; 20.5 µM in the test on NCI-H226 lung. Further, the GI50 is above 25 µM in the test on SF-295 CNS, above 25 µM in the test with KM12 colon, 5.48 µM in the test on RXF 393 renal and above 25 µM with COLO 205 colon. Also, the TGI in the test with 786-0 renal was above 25 µM; with OVCAR-8 ovarian, above 25 µM; in the test with SNB-19 CNS it was above 25 µM; in the test on M14 melanoma it was above 25 µM; with CAKI-1 renal, above 17.5 µM; in the test on NCI-H226 lung it was above 25 µM. Further, the TGI in the test with SF-295 CNS is above 25 µM; in the test on KM12 colon, above 25 µM; in the test on RXF 393 renal it was 19.2 µM; in the test with COLO 205 colon, above 25 µM.
Consider `Cc1cccc(N2CCN(C(=S)c3ccc4c(c3)OCO4)CC2)c1`, for which the GI50 in the test on 786-0 renal was 7.97 µM; with OVCAR-8 ovarian it was 1.81 µM; in the test on SNB-19 CNS, 1.64 µM; in the test with M14 melanoma, 0.463 µM; in the test with CAKI-1 renal, 0.485 µM; with NCI-H226 lung, 41 µM. Further, the GI50 in the test on SF-295 CNS was 0.409 µM; in the test on KM12 colon, 0.514 µM; in the test with RXF 393 renal, 1.14 µM; in the test with COLO 205 colon it was 0.582 µM. The TGI in the test on 786-0 renal, in the test with OVCAR-8 ovarian, in the test on SNB-19 CNS, with M14 melanoma, in the test with CAKI-1 renal and with NCI-H226 lung was above 100 µM each time. Further, the TGI in the test with SF-295 CNS is above 100 µM; in the test on KM12 colon, above 100 µM; in the test on RXF 393 renal, 5.82 µM; with COLO 205 colon, 4.9 µM.
Regarding `CCCCC(O)(c1ccc(Cl)cc1)C(CN1CCOCC1)c1ccc(Cl)cc1` (stereo not given), the GI50 in the test on 786-0 renal was 13.6 µM; in the test with OVCAR-8 ovarian it was 15.7 µM; in the test with SNB-19 CNS it was 15.3 µM; with M14 melanoma, 13.8 µM; with CAKI-1 renal, 14.6 µM; in the test with NCI-H226 lung, 11.8 µM. Further, the GI50 in the test on SF-295 CNS is 14.4 µM; in the test with KM12 colon, 12.2 µM; in the test on RXF 393 renal, 8.15 µM; with COLO 205 colon, 10.8 µM. In addition, the TGI in the test on 786-0 renal came to 27.5 µM; in the test with OVCAR-8 ovarian, 42 µM; in the test with SNB-19 CNS, 36.6 µM; in the test on M14 melanoma, 33.4 µM; with CAKI-1 renal it was 32.6 µM; in the test on NCI-H226 lung, 28.8 µM. In addition, the TGI amounted to 30.7 µM in the test with SF-295 CNS, 29.1 µM in the test on KM12 colon, 22.8 µM in the test with RXF 393 renal and 25.5 µM with COLO 205 colon.
Take `CCOC(=O)[C@@H](N)CCC(=O)N[C@@H](CSCc1ccccc1)C(=O)N[C@@H](C(=O)OCC)c1ccccc1`: the GI50 with 786-0 renal is 17.7 µM; with OVCAR-8 ovarian it was 16.8 µM; in the test on SNB-19 CNS it was 18.8 µM; in the test with M14 melanoma, 19 µM; in the test with CAKI-1 renal, 22.2 µM; in the test on NCI-H226 lung, 16.4 µM. For the same compound, the GI50 in the test on SF-295 CNS was 18.3 µM; in the test with KM12 colon, 18.1 µM; in the test with RXF 393 renal, 14.1 µM; in the test on COLO 205 colon it was 17.4 µM. Besides, the TGI was 33.7 µM in the test on 786-0 renal; 32.5 µM in the test with OVCAR-8 ovarian; 38 µM with SNB-19 CNS; 37.2 µM in the test with M14 melanoma; above 53 µM in the test with CAKI-1 renal; 37.5 µM with NCI-H226 lung. For the same compound, the TGI in the test with SF-295 CNS came to 40.2 µM; in the test with KM12 colon it was 33.8 µM; in the test on RXF 393 renal it was 27.5 µM; with COLO 205 colon it was 34.2 µM.
